Patent publication US20240024317A1, “CANCER TREATMENT USING BOSENTAN IN COMBINATION WITH A CHECKPOINT INHIBITOR” (Materia Therapeutics Inc., priority 2020, published 2024)

Legend:
E0771 tumors = assay: Atomic force microscopy (AFM) Young's modulus and stiffness fingerprint of excised tumors; format: in vivo, mice
4T1 tumors [1] = assay: Shear wave elastography of tumor stiffness (Example 5); format: in vivo, mice; settings: bosentan 1 mg/kg
From the text: Ultrasound elastography. Shear wave elestography was employed on a premier Philips EPIQ Elite Ultrasound system using a handheld linear array (eL 18-4) transducer. The method generates shear wave velocity via an acoustic push pulse, creating a color mapped elastogram where red indicates hard tissue and blue indicates soft tissue. A confidence display was also used as a reference of the highest shear wave quality of the user-defined region of interest (ROI). The average value of the tumor region was automatically generated by the system under default scanner settings and expressed in kPa. The settings that were used were: frequency, 10 MHz; power, 52%; B-mode gain, 22 dB; dynamic range, 62 dB. Shear wave imaging was performed prior to immunotherapy cocktail treatment on day 19 and as well on days 23 and 26.

[2] = system: orthotopic E0771 breast tumors; assay: Pimonidazole hypoxia staining; format: in vivo, mice; settings: 1 mg/kg; E0771 (FIG. 2A)
Procedure: Because reducing collagen I levels and tissue stiffness decompresses vessels, it was hypothesized that hypoxia, which is an indicator of decreased blood flow to the tumor, would be reduced with bosentan treatment. […] For the hypoxia studies, Mice bearing orthotopic E0771 or 4T1 breast tumors were injected (intraperitoneal) with 60 mg/kg of pimonidazole HCl at 2 hr prior to tumor removal. Prior to tumors excision, animals were anesthetized via Avertin (200 mg/kg, intraperitoneal). Primary tumors were then excised, fixed in 4% PFA, embedded in OCT and processed accordingly for IHC. Hypoxic regions were detected using the mouse anti-pimonidazole RED 549 conjugate antibody (HP7-100Kit, 1:100). Hypoxic area fraction across different treatment groups was normalized to DAPI staining. For fluorescent immunohistochemistry, tumors were removed, washed twice in 1× PBS for 10 min and incubated with 4% PFA overnight at 4° C. The fixative was aspirated, and samples washed twice in 1× PBS for 10 min. Fixed tissues were embedded in optimal cutting temperature compound in cryomolds (Tissue-Tek) and frozen completely at −20° C. […] CD31 signal was detected with Alexa Fluor-488 anti-rabbit IgG (H+L) and CD3 signal with Alexa Fluor-647 anti-rat IgG (H+L) secondary antibodies. Tumor associated T cell and vessel content was determined by the CD31 and CD3 area fraction normalized to DAPI staining. […]

4T1 tumors [3] = assay: Whole tumor RT-PCR mRNA expression; format: in vivo, mice
[4] = system: spontaneous E0771 metastases; assay: Survival of mice with spontaneous metastases after surgical removal of primary tumors; format: in vivo
Procedure: (§1) To determine if a stiffness-reducing and hypoxia-reducing (blood flow-increasing) regimen of bosentan could enhance the efficacy of an ICB cocktail of anti-PD-1 (mouse monoclonal anti-PD-1 CD279, clone RMP1-14, BioXCell) and anti-CTLA-4 (mouse monoclonal anti-CTLA-4 CD152, clone 9D9, BioXCell) antibodies, mice bearing primary tumors in a neo-adjuvant setting were administered various treatments. Therapy was administered before removing the primary tumors surgically to assess mice survival against spontaneous metastases that arose on treatment. For the combinatorial treatment with bosentan and Immunotherapy studies, bosentan 1 mg/kg or equal volume of diluent (control group) was administered by intraperitoneal injection (i.p.) once a day for 14 days, starting from once the tumor volumes reached an average size of 5 mm diameter. Immunotherapy was administrated as a cocktail of 10 mg/kg anti-PD-1 (CD279, clone RMP1-14, BioXCell) and 5 mg/kg anti-CTLA-4 (CD152, clone 9D9) following dilution in the recommended InVivoPure pH 7.0 Dilution Buffer (BioXCell). The immunotherapy cocktail was administered i.p. when tumors reached an average size of 200 mm^3 every three days for three doses. For the immunotherapy studies, animals were also treated with a non-targeting isotype control antibody (BioXCell). Primary tumors were excised when they reached an average size of 700 mm^3 and the tissue was sutured for the study of the metastatic tumors. Planar dimensions (x, y) of tumor were monitored every 2-3 days using a digital caliper and tumor volume was estimated from the volume of an ellipsoid and assuming that the third dimension, z, is equal to […]. For the overall survival studies, the ending point was the time to mouse death. […] In the E0771 study, 8 out of 10 mice initiated survived. […] The remaining five mice were rechallenged with a second inoculation of E0771 cells and the tumor growth rates were compared against healthy age-matched control mice.

[5] = system: spontaneous 4T1 metastases; assay: as above; format: in vivo; settings: 1 mg/kg bosentan combined with ICB cocktail, n=8-10
Procedure: as §1

COc1ccccc1Oc1c(NS(=O)(=O)c2ccc(C(C)(C)C)cc2)nc(-c2ncccn2)nc1OCCO [bosentan, 4-tert-butyl-N-[6-(2-hydroxy-ethoxy)-5-(2-methoxy-phenoxy)-2-(pyrimidin-2-yl)pyrimidin-4-yl] benzenesulfonamide]
tissue stiffness, Young's modulus by atomic force microscopy (E0771 tumors; 1 mg/kg daily bosentan, excised E0771 tumors): confirmed
mechanical fingerprint of the tissue (AFM stiffness histogram) (E0771 tumors; tumors treated with 1 mg/kg): large contribution from cancer cells and little contribution from collagen
mechanical fingerprint of the tissue (AFM stiffness histogram) (E0771 tumors; tumors treated with 10 mg/kg): heterogenous collagen contribution
reduction of tumor stiffness (4T1 tumors [1]): more than half
tumor stiffness (elastic modulus) after bosentan treatment (4T1 tumors [1]): ~20 kPa
hypoxia (pimonidazole staining) [2]: reduced hypoxia
T cell activity expression (mRNA) (4T1 tumors [3]): increased
endothelial adhesion molecule expression (mRNA) (4T1 tumors [3]): increased
hypoxia related gene-expression (mRNA) (4T1 tumors [3]): reduced
survival (Kaplan-Meier) ([4]; 1 mg/kg bosentan combined with ICB cocktail, E0771): potentiated
mice surviving ([4]; E0771 study, bosentan combined with ICB cocktail): 8 out of 10
macrometastases in the lungs ([4]; three surviving mice sacrificed, bosentan combined with ICB cocktail): no evidence of macrometasteses
survival, median overall survival (Kaplan-Meier) [5]: potentiated
